Source: patent US20070160725A1, “Use of extracts and compounds of allium-genus plants as preservatives in the food and agri-food industries” (MOUSALA, S., L., priority 2004, published 2007)

Columns and labels:
Experiment in all cases: agar diffusion, inhibition halo
Type in all cases: cell-based
[1] = test system: Penicillium italicum CECT 2294
Method: (§1) In order to evaluate the antimicrobial activity the agar diffusion technique with cellulose discs of 6 mm in diameter impregnated with the different active ingredient testing doses was used.
(§2) Antifungal capacity was assessed against suspensions of […], harvested from pure cultures of the selected molds and against suspensions of 10^7 cells/ml for the case of yeasts. The culture medium used was the 2% Sabouraud-glucose medium (Merck).
(§3) After incubating the culture dishes inoculated with the different organisms at the corresponding temperatures, the microbial inhibition halos that appeared were measured, and said measurement includes the 6 mm diameter of the cellulose discs.

[2] = test system: Geotrichum candidum CECT 1902
Method: as §1, §2, §3

[3] = test system: Trichoderma aureoviride CECT 20102
Method: as §1, §2, §3

[4] = test system: Penicillium sp, isolated from cheese
Method: as §1, §2, §3

[5] = test system: Aspergillus niger, CECT 2700
Method: as §1, §2, §3

[6] = test system: Candida krusei, isolated from cheese
Method: as §1, §2, §3

[7] = test system: Aspergillus terreus, isolated from the environment of the cheese maturation chamber
Method: as §1, §2, §3

[8] = test system: Bacillus cereus, CECT 1178
Method: as §1
(§4) Antibacterial capacity was assessed against suspensions of 10^6 cells/ml, prepared from pure young cultures of each one of the strains to be tested. The culture medium used was Müller-Hinton medium (Merck).
as §3

[9] = test system: Bacillus subtilis, isolated from paprika
Method: as §1, §4, §3

[10] = test system: Escherichia coli, CECT 515
Method: as §1, §4, §3

[11] = test system: Listeria monocytogenes, ATCC 15313
Method: as §1, §4, §3

[12] = test system: Mucor plumbeus, isolated from cheese; conditions: 1000 ppm
Method: as §1, §2, §3

[13] = test system: Staphylococcus aureus, isolated from hamburgers; conditions: 1000 ppm
Method: as §1, §4, §3

[14] = test system: Salmonella typhimurium, ATCC 13311; conditions: 1000 ppm
Method: as §1, §4, §3

[15] = test system: Rhizopus stolonifer CECT 2344
Method: as §1, §2, §3

[16] = Penicillium italicum, CECT2294, 1000 ppm of commercial product, read-out: inhibition halo diameter
[17] = Penicillium italicum, CECT2294, 2000 ppm of commercial product, read-out: inhibition halo diameter
[18] = Penicillium italicum, CECT2294, 4000 ppm of commercial product, read-out: inhibition halo diameter
[19] = Penicillium italicum, CECT2294, read-out: inhibition halo diameter
[20] = 1000 ppm (active ingredient, dose in ppm)
[21] = 2000 ppm (active ingredient, dose in ppm)
[22] = 4000 ppm (active ingredient, dose in ppm)
[23] = 6000 ppm (active ingredient, dose in ppm)

Work on `C=CCOC(Cn1ccnc1)c1ccc(Cl)cc1Cl` (stereo not shown) [Imazalil] yielded a zone of inhibition at 1000 µg/mL [1, 16] of 46 mm, a zone of inhibition at 2000 µg/mL [1, 17] of 47 mm and a zone of inhibition at 4000 µg/mL [1, 18] of 50 mm. The inhibition halo diameter ([2]; 1000 ppm of commercial product) was 20 mm, the inhibition halo diameter ([2]; 2000 ppm of commercial product) was 23 mm and the inhibition halo diameter ([2]; 4000 ppm of commercial product) was 26 mm. It also gave an inhibition halo diameter ([3]; 1000 ppm of commercial product) of 20 mm, an inhibition halo diameter ([3]; 2000 ppm of commercial product) of 25 mm and an inhibition halo diameter ([3]; 4000 ppm of commercial product) of 31 mm.
Guazatine gave an inhibition halo diameter ([1]; 1000 ppm of commercial product) of 10 mm, an inhibition halo diameter ([1]; 2000 ppm of commercial product) of 12 mm and an inhibition halo diameter ([1]; 4000 ppm of commercial product) of 15 mm. The inhibition halo diameter ([2]; 1000 ppm of commercial product) was 27 mm, the inhibition halo diameter ([2]; 2000 ppm of commercial product) was 30 mm and the inhibition halo diameter ([2]; 4000 ppm of commercial product) was 35 mm. The inhibition halo diameter ([3]; 1000 ppm of commercial product) was 25 mm, the inhibition halo diameter ([3]; 2000 ppm of commercial product) was 30 mm and the inhibition halo diameter ([3]; 4000 ppm of commercial product) was 35 mm.
Compound `C=CC1SC=CCS1` (stereo not shown) [2-vinyl-4H-1,3-dithiin] has an inhibition halo diameter ([4]; 125 ppm) of 0 mm, an inhibition halo diameter ([4]; 250 ppm) of 8 mm and an inhibition halo diameter ([4]; 500 ppm) of 10 mm. The inhibition halo diameter ([4]; 1000 ppm) was 12 mm, the inhibition halo diameter ([5]; 125 ppm) was 7 mm and the inhibition halo diameter ([5]; 250 ppm) was 7 mm. The inhibition halo diameter ([5]; 500 ppm) was 10 mm, the inhibition halo diameter ([5]; 1000 ppm) was 15 mm and the inhibition halo diameter ([6]; 125 ppm) was 7 mm. For the same compound, the inhibition halo diameter ([6]; 250 ppm) was 10 mm, the inhibition halo diameter ([6]; 500 ppm) was 10 mm and the inhibition halo diameter ([6]; 1000 ppm) was 12 mm. It also gave an inhibition halo diameter ([7]; 125 ppm) of 0 mm, an inhibition halo diameter ([7]; 250 ppm) of 0 mm and an inhibition halo diameter ([7]; 500 ppm) of 6 mm. For the same compound, the inhibition halo diameter ([7]; 1000 ppm) was 7 mm, the zone of inhibition at 125 ppm ([1]; Penicillium italicum, CECT2294, 125 ppm, read-out: inhibition halo diameter) was 0 mm and the zone of inhibition at 250 ppm ([1]; Penicillium italicum, CECT2294, 250 ppm, read-out: inhibition halo diameter) was 0 mm. It also gave a zone of inhibition at 500 ppm ([1]; Penicillium italicum, CECT2294, 500 ppm, read-out: inhibition halo diameter) of 8 mm, a zone of inhibition at 1000 ppm [1, 19] of 10 mm and an inhibition halo diameter ([2]; 125 ppm) of 7 mm. The inhibition halo diameter ([2]; 250 ppm) was 7 mm, the inhibition halo diameter ([2]; 500 ppm) was 10 mm and the inhibition halo diameter ([2]; 1000 ppm) was 15 mm. For the same compound, the inhibition halo diameter ([8]; 125 ppm) was 7 mm, the inhibition halo diameter ([8]; 250 ppm) was 9 mm and the inhibition halo diameter ([8]; 500 ppm) was 10 mm. It also gave an inhibition halo diameter ([8]; 1000 ppm) of 12 mm, an inhibition halo diameter ([9]; 125 ppm) of 7 mm and an inhibition halo diameter ([9]; 250 ppm) of 10 mm. For the same compound, the inhibition halo diameter ([9]; 500 ppm) was 13 mm, the inhibition halo diameter ([9]; 1000 ppm) was 15 mm and the inhibition halo diameter ([10]; 125 ppm) was 0 mm. The inhibition halo diameter ([10]; 250 ppm) was 0 mm, the inhibition halo diameter ([10]; 500 ppm) was 0 mm and the inhibition halo diameter ([10]; 1000 ppm) was 0 mm. It also gave an inhibition halo diameter ([11]; 125 ppm) of 0 mm, an inhibition halo diameter ([11]; 250 ppm) of 7 mm and an inhibition halo diameter ([11]; 500 ppm) of 8 mm. For the same compound, the inhibition halo diameter ([11]; 1000 ppm) was 10 mm.
In the case of `CCCCS[S+]([O-])CCCC` (stereo not shown) [BTS, n-butyl n-butyl thiosulfinate], the inhibition halo diameter [12] is reported as 17 mm, the zone of inhibition at 1000 ppm [1, 19] is reported as 67 mm and the inhibition halo diameter [13] is reported as 45 mm. The inhibition halo diameter [14] was 20 mm and the inhibition halo diameter ([9]; 1000 ppm) was 60 mm.
For `c1ccc2[nH]c(-c3cscn3)nc2c1` [Thiabendazole], the zone of inhibition at 1000 µg/mL [1, 16] was > 40 mm, the zone of inhibition at 2000 µg/mL [1, 17] was > 40 mm and the zone of inhibition at 4000 µg/mL [1, 18] was > 40 mm. For the same compound, the inhibition halo diameter ([2]; 1000 ppm of commercial product) was 0 mm, the inhibition halo diameter ([2]; 2000 ppm of commercial product) was 0 mm and the inhibition halo diameter ([2]; 4000 ppm of commercial product) was 0 mm. The inhibition halo diameter ([3]; 1000 ppm of commercial product) was 24 mm, the inhibition halo diameter ([3]; 2000 ppm of commercial product) was 26 mm and the inhibition halo diameter ([3]; 4000 ppm of commercial product) was 26 mm.
Work on `[Na+].[O-]c1ccccc1-c1ccccc1` [30% Na o-phenylphenate, Na o-phenylphenate] yielded an inhibition halo diameter [1, 20] of 20 mm, an inhibition halo diameter [1, 21] of 30 mm and an inhibition halo diameter [1, 22] of 33 mm. For the same compound, the inhibition halo diameter [1, 23] was 53 mm, the inhibition halo diameter [15, 20] was 0 mm and the inhibition halo diameter [15, 21] was 0 mm. The inhibition halo diameter [15, 22] was 0 mm, the inhibition halo diameter [15, 23] was 0 mm and the inhibition halo diameter [2, 20] was 7 mm. For the same compound, the inhibition halo diameter [2, 21] was 30 mm, the inhibition halo diameter [2, 22] was 35 mm and the inhibition halo diameter [2, 23] was 40 mm. The inhibition halo diameter [3, 20] was 0 mm, the inhibition halo diameter [3, 21] was 10 mm and the inhibition halo diameter [3, 22] was 20 mm. The inhibition halo diameter [3, 23] was 35 mm.
